Converted amounts (≈) assume the structure as drawn.
system: Mycobacterium tuberculosis; experiment: Antimycobacterial activity against isoniazid-resistant Mycobacterium tuberculosis by agar dilution method using double dilution technique; type: functional

Going from `O=S(=O)(c1ccc(NC(c2ccccc2)n2nc(COc3cccc4ccccc34)oc2=S)cc1)c1ccc(NC(c2ccccc2)n2nc(COc3cccc4ccccc34)oc2=S)cc1` (stereo not given) to `O=S(=O)(c1ccc(NC(c2ccccc2)n2nc(COc3ccc4ccccc4c3)oc2=S)cc1)c1ccc(NC(c2ccccc2)n2nc(COc3ccc4ccccc4c3)oc2=S)cc1` (stereo not given), the MIC falls from 5.96 µM (≈ 5.61 µg/mL) to 2.42 µM (≈ 2.28 µg/mL) (2.5-fold).

`O=S(=O)(c1ccc(NC(c2ccccc2)n2nc(Cc3ccccc3)oc2=S)cc1)c1ccc(NC(c2ccccc2)n2nc(Cc3ccccc3)oc2=S)cc1` (stereo not given) and `O=S(=O)(c1ccc(NC(c2ccccc2)n2nc(COc3ccccc3)oc2=S)cc1)c1ccc(NC(c2ccccc2)n2nc(COc3ccccc3)oc2=S)cc1` (stereo not given) are within 1.5-fold of each other in MIC: 5.98 µM (≈ 4.84 µg/mL) for the first, 4.98 µM (≈ 4.19 µg/mL) for the second.

First: O=S(=O)(c1ccc(NC(Cc2ccco2)n2nc(COc3ccc4ccccc4c3)oc2=S)cc1)c1ccc(NC(Cc2ccco2)n2nc(COc3ccc4ccccc4c3)oc2=S)cc1 (stereo not given)
Second: O=S(=O)(c1ccc(NC(Cc2ccco2)n2nc(COc3cccc4ccccc34)oc2=S)cc1)c1ccc(NC(Cc2ccco2)n2nc(COc3cccc4ccccc34)oc2=S)cc1 (stereo not given)
The MIC of the first is 1.9-fold lower: 1.1 µM (≈ 1.04 µg/mL) for the first, 2.12 µM (≈ 2.01 µg/mL) for the second.

First: O=S(=O)(c1ccc(NC(Cc2ccco2)n2nc(COc3ccccc3)oc2=S)cc1)c1ccc(NC(Cc2ccco2)n2nc(COc3ccccc3)oc2=S)cc1 (stereo not given)
Second: O=S(=O)(c1ccc(NC(Cc2ccco2)n2nc(Cc3ccccc3)oc2=S)cc1)c1ccc(NC(Cc2ccco2)n2nc(Cc3ccccc3)oc2=S)cc1 (stereo not given)
The MIC of the first is 2.8-fold lower: 1.14 µM (≈ 0.968 µg/mL) for the first, 3.24 µM (≈ 2.65 µg/mL) for the second.

`O=[N+]([O-])c1ccc(-c2nn(C(Nc3ccc(S(=O)(=O)c4ccc(NC(c5ccccc5)n5nc(-c6ccc([N+](=O)[O-])cc6)oc5=S)cc4)cc3)c3ccccc3)c(=S)o2)cc1` (stereo not given) and `O=S(=O)(c1ccc(NC(c2ccccc2)n2nc(-c3ccccc3)oc2=S)cc1)c1ccc(NC(c2ccccc2)n2nc(-c3ccccc3)oc2=S)cc1` (stereo not given) are within 1.5-fold of each other in MIC: 3.94 µM (≈ 3.43 µg/mL) for the first, 5.42 µM (≈ 4.23 µg/mL) for the second.

Going from `O=S(=O)(c1ccc(NC(c2ccccc2)n2nc(-c3ccc(Nc4ccccc4)cc3)oc2=S)cc1)c1ccc(NC(c2ccccc2)n2nc(-c3ccc(Nc4ccccc4)cc3)oc2=S)cc1` (stereo not given) to `O=S(=O)(c1ccc(NC(Cc2ccco2)n2nc(-c3ccc(Nc4ccccc4)cc3)oc2=S)cc1)c1ccc(NC(Cc2ccco2)n2nc(-c3ccc(Nc4ccccc4)cc3)oc2=S)cc1` (stereo not given), the MIC falls from 4.65 µM (≈ 4.48 µg/mL) to 1.86 µM (≈ 1.81 µg/mL) (2.5-fold).

`O=[N+]([O-])c1ccc(-c2nn(C(Cc3ccco3)Nc3ccc(S(=O)(=O)c4ccc(NC(Cc5ccco5)n5nc(-c6ccc([N+](=O)[O-])cc6)oc5=S)cc4)cc3)c(=S)o2)cc1` (stereo not given) and `O=S(=O)(c1ccc(NC(Cc2ccco2)n2nc(-c3ccccc3)oc2=S)cc1)c1ccc(NC(Cc2ccco2)n2nc(-c3ccccc3)oc2=S)cc1` (stereo not given) are within 1.5-fold of each other in MIC: 1.74 µM (≈ 1.53 µg/mL) for the first, 2.24 µM (≈ 1.77 µg/mL) for the second.

`NNC(=O)c1ccncc1` [ISONIAZID] showed an MIC of 11.4 µM (≈ 1.56 µg/mL).

Source: ChEMBL document CHEMBL1148026, “Oxadiazole mannich bases: synthesis and antimycobacterial activity” (Bioorg Med Chem Lett, 2007)
